The values below come from patent US20200288710A1, “SUBSTITUTED SULPHONAMIDES FOR CONTROLLING ANIMAL PESTS” (BAYER CROPSCIENCE AKTIENGESELLSCHAFT, priority 2016, published 2020).

Assay [1] concerns Myzus persicae. In words: Myzus persicae oral test. It counts as in vivo. The conditions noted are these: 120 h, 20 ppm, oral uptake, after 5 days, read-out: efficacy. On the procedure:
Myzus persicae—Oral Test Solvent: 100 parts by weight of acetone To produce a suitable preparation of active compound, 1 part by weight of active compound is dissolved using the specified parts by weight of solvent and made up with water until the desired concentration is attained. 50 μl of the active compound preparation are transferred into microtitre plates and made up to a final volume of 200 μl with 150 μl of IPL41 insect medium (33%+15% sugar). Subsequently, the plates are sealed with parafilm, which a mixed population of green peach aphids (Myzus persicae) within a second microtitre plate is able to puncture and imbibe the solution through it. After 5 days, the efficacy in % is determined. 100% means that all the aphids have been killed; 0% means that no aphids have been killed.

Assay [2] deals with Myzus persicae. In words: Myzus persicae spray test (Chinese cabbage leaf discs). Format: in vivo. The conditions noted are these: foliar, 120 h, 500 g/ha, after 5-6 days, read-out: efficacy. How it is done: Myzus persicae—Spray Test Solvent: 78 parts by weight of acetone • • 1.5 parts by weight of dimethylformamide Emulsifier: alkylaryl polyglycol ether To produce a suitable preparation of active compound, 1 part by weight of active compound is dissolved using the specified parts by weight of solvent and made up with water containing an emulsifier concentration of 1000 ppm until the desired concentration is attained. To produce further test concentrations, the formulation is diluted with emulsifier-containing water. Discs of Chinese cabbage leaves (Brassica pekinensis) infested by all stages of the green peach aphid (Myzus persicae) are sprayed with an active compound preparation of the desired concentration. After 5-6 days, the efficacy in % is determined. 100% means that all the aphids have been killed; 0% means that no aphids have been killed.

SMILES strings stand for the structures.

Regarding `Cn1cc(C(=O)NS(=O)(=O)c2ccccc2)nc1-c1c(F)cccc1Cl` [Example 112], the pest or weed control at 20 ppm in the assay on Myzus persicae [1] amounted to 100%. In addition, the pest or weed control at 500 g/ha in the assay with Myzus persicae [2] came out at 90%.
The like results for `Cn1cc(C(=O)NS(=O)(=O)c2ccccc2Cl)nc1-c1ccccc1C(F)(F)F` [Example 115] were, in that order, 90% and 100%.
With `COc1ccccc1S(=O)(=O)NC(=O)c1cn(C)c(-c2c(F)cccc2F)n1` [Example 116], the pest or weed control at 20 ppm with Myzus persicae [1] is 100%. The pest or weed control at 500 g/ha in the assay on Myzus persicae [2] is 100%.
`Cn1cc(C(=O)NS(=O)(=O)c2ccccc2F)nc1-c1c(F)cccc1F` [Example 117]: the pest or weed control at 20 ppm in the assay on Myzus persicae [1] was found to be 90%. Also, in the assay on Myzus persicae [2], the pest or weed control at 500 g/ha was found to be 100%.
Taken in the same sequence, the figures for `CCc1[nH]c(-c2c(F)cccc2F)nc1C(=O)NS(=O)(=O)c1ccccc1Cl` [Example 124] were 100% and 90%.
The like results for `CCc1[nH]c(-c2c(F)cccc2F)nc1C(=O)NS(=O)(=O)c1ccccc1C` [Example 125] were, in that order, 100% and 90%.
Taken in the same sequence, the figures for `CCc1[nH]c(-c2c(F)cccc2F)nc1C(=O)NS(=O)(=O)C(C)C` [Example 126] were 90% and 90%.
With `Cc1ccccc1S(=O)(=O)NC(=O)c1nc(-c2c(F)cccc2F)c(C)[nH]1` [Example 147], the pest or weed control at 20 ppm in the assay on Myzus persicae [1] is 100%. The pest or weed control at 500 g/ha in the assay on Myzus persicae [2] was 100%.
As for `COc1ccc(Cl)c(S(=O)(=O)NC(=O)c2nc(-c3c(F)cccc3F)c(C)[nH]2)c1` [Example 148], the pest or weed control at 20 ppm with Myzus persicae [1] is 100%. Further, in the assay on Myzus persicae [2], the pest or weed control at 500 g/ha was 90%.
The like results for `COCCS(=O)(=O)NC(=O)c1cn(C)c(-c2c(F)cccc2Cl)n1` [Example 150] were, in that order, 90% and 90%.
The like results for `COc1ccc(F)c(S(=O)(=O)NC(=O)c2cn(C)c(-c3c(F)cccc3Cl)n2)c1` [Example 157] were, in that order, 100% and 100%.
As to `Cc1ccccc1S(=O)(=O)NC(=O)c1nc(-c2c(F)cccc2F)n(C)n1` [Example 159], the pest or weed control at 20 ppm in the assay with Myzus persicae [1] stood at 100%. Also, in the assay with Myzus persicae [2], the pest or weed control at 500 g/ha turned out to be 90%.
Taken in the same sequence, the figures for `Cn1c(C(=O)NS(=O)(=O)c2ccccc2Br)cnc1-c1c(F)cccc1F` [Example 162] were 100% and 90%.
In the case of `COc1ccc(F)c(S(=O)(=O)NC(=O)c2cn(C)c(-c3c(F)cccc3F)n2)c1` [Example 170], the pest or weed control at 20 ppm in the assay on Myzus persicae [1] was 100%. Further, in the assay on Myzus persicae [2], the pest or weed control at 500 g/ha came out at 90%.
Taken in the same sequence, the figures for `CCn1cc(S(=O)(=O)NC(=O)c2cn(C)c(-c3c(F)cccc3F)n2)c(C)n1` [Example 181] were 90% and 100%.
Taken in the same sequence, the figures for `Cn1cc(C(=O)NS(=O)(=O)c2sc(Cl)cc2Br)nc1-c1c(F)cccc1F` [Example 211] were 100% and 100%.
The like results for `Cn1cc(C(=O)NS(=O)(=O)c2cnccc2Cl)nc1-c1ccccc1Cl` [Example 220] were, in that order, 100% and 100%.
For the compound `Cc1cc(C(=O)NS(=O)(=O)c2c(Cl)cccc2Cl)nn1-c1ncccc1Cl` [Example 268], in the assay on Myzus persicae [1], the pest or weed control at 20 ppm is 100%. Besides, the pest or weed control at 500 g/ha in the assay with Myzus persicae [2] is 90%.
Taken in the same sequence, the figures for `CCc1ccc(OC)c(S(=O)(=O)NC(=O)c2cn(C)c(-c3ccccc3Cl)n2)c1` [Example 278] were 100% and 100%.
Consider `Cc1ccccc1S(=O)(=O)NC(=O)c1cc(C)n(-c2ncccc2Br)n1` [Example 297], for which the pest or weed control at 20 ppm in the assay with Myzus persicae [1] came to 100%. Further, the pest or weed control at 500 g/ha in the assay on Myzus persicae [2] was 90%.
The like results for `CCc1ccccc1S(=O)(=O)NC(=O)c1cc(C)n(-c2ncccc2Br)n1` [Example 298] were, in that order, 100% and 100%.
For `COc1ccc(Cl)c(S(=O)(=O)NC(=O)c2cc(C)n(-c3ncccc3Br)n2)c1` [Example 301], the pest or weed control at 20 ppm in the assay on Myzus persicae [1] was 90%. Further, the pest or weed control at 500 g/ha in the assay on Myzus persicae [2] came out at 100%.
As to `CCc1cccc(OS(C)(=O)=O)c1S(=O)(=O)NC(=O)c1cn(C)c(-c2c(F)cccc2F)n1` [Example 342], in the assay with Myzus persicae [1], the pest or weed control at 20 ppm turned out to be 100%. The pest or weed control at 500 g/ha with Myzus persicae [2] came to 100%.
Turning to `Cc1cccc([N+](=O)[O-])c1S(=O)(=O)NC(=O)c1cn(C)c(-c2c(F)cccc2F)n1` [Example 367], the pest or weed control at 20 ppm in the assay with Myzus persicae [1] was 100%. Besides, the pest or weed control at 500 g/ha in the assay with Myzus persicae [2] is 90%.
Turning to `COc1cccc(F)c1S(=O)(=O)NC(=O)c1cn(C)c(-c2c(F)cccc2F)n1` [Example 381], in the assay on Myzus persicae [1], the pest or weed control at 20 ppm was found to be 100%. For the same compound, the pest or weed control at 500 g/ha in the assay with Myzus persicae [2] came to 100%.
In the case of `COc1cccc(S(=O)(=O)NC(=O)c2cn(C)c(-c3c(F)cccc3F)n2)c1` [Example 388], the pest or weed control at 20 ppm in the assay with Myzus persicae [1] came out at 100%. Further, the pest or weed control at 500 g/ha with Myzus persicae [2] amounted to 90%.
The like results for `COc1ccc([N+](=O)[O-])c(S(=O)(=O)NC(=O)c2cn(C)c(-c3c(F)cccc3F)n2)c1` [Example 389] were, in that order, 100% and 90%.
Taken in the same sequence, the figures for `COc1ccc(C)cc1S(=O)(=O)NC(=O)c1cn(C)c(-c2c(F)cccc2F)n1` [Example 390] were 100% and 100%.
The like results for `Cn1cc(C(=O)NS(=O)(=O)c2c(F)cccc2Br)nc1-c1c(F)cccc1F` [Example 432] were, in that order, 100% and 100%.
Regarding `COc1ccc(Cl)c(C)c1S(=O)(=O)NC(=O)c1cn(C)c(-c2c(F)cccc2F)n1` [Example 433], the pest or weed control at 20 ppm with Myzus persicae [1] is 100%. For the same compound, the pest or weed control at 500 g/ha with Myzus persicae [2] worked out at 90%.
`COc1cc(C)ccc1S(=O)(=O)NC(=O)c1cn(C)c(-c2c(F)cccc2F)n1` [Example 447]: the pest or weed control at 20 ppm in the assay on Myzus persicae [1] is 100%. In addition, the pest or weed control at 500 g/ha in the assay with Myzus persicae [2] stood at 90%.
Taken in the same sequence, the figures for `Cc1ccc(F)c(S(=O)(=O)NC(=O)c2cn(C)c(-c3c(F)cccc3F)n2)c1` [Example 454] were 100% and 90%.
Taken in the same sequence, the figures for `Cn1cc(C(=O)NS(=O)(=O)c2ccccc2Cl)nc1-c1ccccc1OC(F)(F)F` [Example 459] were 100% and 90%.
The like results for `COc1ccc(OC)c(S(=O)(=O)NC(=O)c2cn(C)c(-c3cccc(Cl)c3Cl)n2)c1` [Example 462] were, in that order, 90% and 90%.
In the case of `COc1ccc(F)cc1S(=O)(=O)NC(=O)c1cn(C)c(-c2cccc(Cl)c2Cl)n1` [Example 463], in the assay on Myzus persicae [1], the pest or weed control at 20 ppm is 100%. Also, the pest or weed control at 500 g/ha with Myzus persicae [2] stood at 100%.
Take `Cn1cc(C(=O)NS(=O)(=O)c2ccccc2Cl)nc1-c1ccccc1S(C)(=O)=O` [Example 483]: the pest or weed control at 20 ppm in the assay with Myzus persicae [1] was determined as 100%. In addition, the pest or weed control at 500 g/ha in the assay with Myzus persicae [2] stood at 90%.
The like results for `Cn1cc(C(=O)NS(=O)(=O)c2ccccc2Cl)nc1-c1cccnc1Cl` [Example 490] were, in that order, 100% and 90%.
The like results for `Cc1ccccc1S(=O)(=O)NC(=O)c1cn(C)c(-c2cccnc2Cl)n1` [Example 491] were, in that order, 100% and 100%.
Taken in the same sequence, the figures for `COc1ccccc1S(=O)(=O)NC(=O)c1cn(C)c(-c2cccnc2Cl)n1` [Example 492] were 100% and 100%.
With `Cn1cc(C(=O)NS(=O)(=O)c2ccccc2Cl)nc1-c1c(F)cccc1C#N` [Example 501], the pest or weed control at 20 ppm in the assay on Myzus persicae [1] worked out at 100%. Moreover, the pest or weed control at 500 g/ha in the assay on Myzus persicae [2] was 100%.
For `Cn1cc(C(=O)NS(=O)(=O)c2ccccc2Cl)nc1-c1ccccc1[N+](=O)[O-]` [Example 524], the pest or weed control at 20 ppm in the assay with Myzus persicae [1] turned out to be 100%. Besides, in the assay on Myzus persicae [2], the pest or weed control at 500 g/ha worked out at 90%.
Consider `COc1ccccc1S(=O)(=O)NC(=O)c1cn(C)c(-c2sccc2Cl)n1` [Example 549], for which the pest or weed control at 20 ppm with Myzus persicae [1] stood at 100%. In addition, the pest or weed control at 500 g/ha in the assay with Myzus persicae [2] came to 100%.
Turning to `COc1ccc(Br)cc1S(=O)(=O)NC(=O)c1cn(C)c(-c2cccc(Cl)c2Cl)n1` [Example 559], in the assay on Myzus persicae [1], the pest or weed control at 20 ppm was 100%. In the assay with Myzus persicae [2], the pest or weed control at 500 g/ha was 100%.
For the compound `Cc1ccc(F)cc1S(=O)(=O)NC(=O)c1cn(C)c(-c2ncccc2F)n1` [Example 562], the pest or weed control at 20 ppm in the assay on Myzus persicae [1] came to 100%. Further, the pest or weed control at 500 g/ha in the assay with Myzus persicae [2] came out at 100%.
For `Cc1cccc(C(F)(F)F)c1S(=O)(=O)NC(=O)c1cn(C)c(-c2ncccc2F)n1` [Example 563], the pest or weed control at 20 ppm in the assay with Myzus persicae [1] was found to be 100%. Moreover, the pest or weed control at 500 g/ha with Myzus persicae [2] was 100%.
For the compound `Cn1cc(C(=O)NS(=O)(=O)c2ccccc2Br)nc1-c1ncccc1F` [Example 564], the pest or weed control at 20 ppm with Myzus persicae [1] worked out at 100%. Besides, in the assay on Myzus persicae [2], the pest or weed control at 500 g/ha was determined as 100%.
